Results taken from US9783536B2, “Nitrogen-containing heterocyclic compound or salt thereof” (FUJIFILM Corporation, priority 2013, dated 2017).
Where two headings read alike, the source gives them in different places.

Key:
[1] = biological target: T1, human PI3Kα protein (Homo sapiens, UniProt P42336); assay: PI3Kα enzyme assay (ADP-Glo); assay type: biochemical; conditions: read-out: PI3Kα enzyme inhibitory activity
T1 construct: purchased Carna Biosciences, Inc; host or cells: baculovirus expression system
T1 sequence (P42336 whole entry): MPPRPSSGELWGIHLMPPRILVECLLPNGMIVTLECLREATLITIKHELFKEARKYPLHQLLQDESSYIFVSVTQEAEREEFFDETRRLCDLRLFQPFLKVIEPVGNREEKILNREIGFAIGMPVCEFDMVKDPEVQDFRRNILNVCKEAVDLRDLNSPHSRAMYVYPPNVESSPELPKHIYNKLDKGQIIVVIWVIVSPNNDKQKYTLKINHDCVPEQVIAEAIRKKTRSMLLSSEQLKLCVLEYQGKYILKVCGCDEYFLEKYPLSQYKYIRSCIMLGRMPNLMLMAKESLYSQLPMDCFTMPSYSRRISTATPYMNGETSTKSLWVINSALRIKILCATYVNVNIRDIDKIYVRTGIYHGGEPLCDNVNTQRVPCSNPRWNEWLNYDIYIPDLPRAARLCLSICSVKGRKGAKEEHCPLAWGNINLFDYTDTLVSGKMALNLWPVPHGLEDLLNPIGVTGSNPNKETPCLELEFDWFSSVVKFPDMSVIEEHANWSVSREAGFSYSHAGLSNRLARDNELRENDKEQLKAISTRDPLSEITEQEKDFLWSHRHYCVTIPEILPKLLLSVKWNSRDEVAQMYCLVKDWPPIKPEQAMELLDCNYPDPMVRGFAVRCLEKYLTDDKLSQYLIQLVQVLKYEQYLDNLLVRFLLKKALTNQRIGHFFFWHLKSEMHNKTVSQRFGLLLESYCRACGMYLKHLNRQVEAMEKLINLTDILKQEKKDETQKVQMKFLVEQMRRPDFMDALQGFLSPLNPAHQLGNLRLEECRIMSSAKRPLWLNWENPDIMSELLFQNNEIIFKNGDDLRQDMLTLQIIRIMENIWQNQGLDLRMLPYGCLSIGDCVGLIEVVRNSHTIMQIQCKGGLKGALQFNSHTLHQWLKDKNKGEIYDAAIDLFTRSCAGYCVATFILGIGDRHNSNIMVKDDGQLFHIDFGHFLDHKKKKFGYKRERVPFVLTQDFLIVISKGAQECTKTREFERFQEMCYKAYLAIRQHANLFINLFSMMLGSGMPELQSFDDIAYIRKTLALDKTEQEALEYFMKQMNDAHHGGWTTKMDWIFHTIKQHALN
T1 sequence (P27986 whole entry partner): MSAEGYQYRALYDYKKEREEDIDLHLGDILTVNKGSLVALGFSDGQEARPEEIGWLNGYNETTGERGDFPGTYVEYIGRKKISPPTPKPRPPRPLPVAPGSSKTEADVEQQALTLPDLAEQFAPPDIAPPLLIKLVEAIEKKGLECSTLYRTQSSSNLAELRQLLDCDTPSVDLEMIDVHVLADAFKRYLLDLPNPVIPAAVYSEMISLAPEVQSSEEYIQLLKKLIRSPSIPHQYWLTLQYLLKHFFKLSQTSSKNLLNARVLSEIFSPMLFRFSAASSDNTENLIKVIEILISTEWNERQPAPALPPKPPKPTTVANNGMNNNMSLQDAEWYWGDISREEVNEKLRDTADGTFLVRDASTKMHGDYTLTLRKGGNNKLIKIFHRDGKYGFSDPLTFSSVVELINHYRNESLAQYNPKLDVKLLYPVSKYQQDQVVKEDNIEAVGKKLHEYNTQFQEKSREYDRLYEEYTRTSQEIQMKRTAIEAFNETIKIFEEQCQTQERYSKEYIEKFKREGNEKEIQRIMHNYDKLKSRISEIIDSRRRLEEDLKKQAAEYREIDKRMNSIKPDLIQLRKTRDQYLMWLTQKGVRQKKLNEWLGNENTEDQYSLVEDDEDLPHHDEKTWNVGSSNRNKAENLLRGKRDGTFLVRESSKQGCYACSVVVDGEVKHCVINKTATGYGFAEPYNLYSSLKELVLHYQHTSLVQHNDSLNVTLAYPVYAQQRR
Procedure, shortened: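 Biotinylated human PI3Kα (baculovirus-expressed, 4.5 nmol/L) pre-incubated 15 min with compound in Tris-HCl pH 7.5, MgCl2, BSA; reaction 60 min at 25° C with 50 μmol/L PIP2 and 100 μmol/L ATP final. ADP quantified by ADP-Glo luminescence; IC50 calculated.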

[2] = biological target: T2, GST fusion human ERK2 protein (Homo sapiens, UniProt P28482); assay: ERK2 enzyme assay (2); assay type: biochemical; conditions: read-out: ERK2 enzyme inhibitory activity (2)
T2 construct: purchased Carna Biosciences, Inc; host or cells: E. coli expression system
T2 sequence (P28482 whole entry, the tested form may be a part): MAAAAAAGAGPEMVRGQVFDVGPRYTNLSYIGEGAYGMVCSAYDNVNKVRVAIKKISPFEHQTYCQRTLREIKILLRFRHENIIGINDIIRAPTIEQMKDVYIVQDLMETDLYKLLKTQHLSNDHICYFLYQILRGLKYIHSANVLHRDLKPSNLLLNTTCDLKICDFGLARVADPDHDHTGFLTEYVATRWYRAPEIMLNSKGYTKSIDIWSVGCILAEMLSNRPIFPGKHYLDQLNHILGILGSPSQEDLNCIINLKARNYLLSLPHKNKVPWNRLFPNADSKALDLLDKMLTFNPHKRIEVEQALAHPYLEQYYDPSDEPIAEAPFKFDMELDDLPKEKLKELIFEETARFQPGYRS
Procedure, shortened: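 GST-tagged human ERK2 expressed in E. coli (1.25 nmol/L) was preincubated with compound for 15 min at room temperature in pH 7.5 Hepes buffer with MgCl2, DTT and Brij35. Reaction with FL-Peptide 8 (final 4.25 μmol/L) and ATP (final 1 mmol/L) ran 120 min at 25 °C; EDTA stopped it, and phosphorylated peptide was quantified by mobility-shift separation to derive IC50.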

| SMILES | IC50 [1] [nM] | IC50 ([2]; ERK2 enzyme assay (2)) [nM] | IC50 [2] [nM] |
| --- | --- | --- | --- |
| COCCN(CCOC)c1nn(C)cc1-c1cnc2ccc(Nc3cc(C(C)C)cnn3)nc2c1 [Example 0947] | 1000 to 10000 | – | 1000 to 10000 |
| Cc1nc(C)c(-c2cnc3ccc(Nc4cc(C(C)C)cnn4)nc3c2)s1 [Example 0574, 7-(2,4-dimethylthiazol-5-yl)-N-(5-isopropylpyridazin-3-yl)-1,5-naphthyridine-2-amine] | 1000 to 10000 | < 1000 | – |
| COc1cnnc(Nc2ccc3ncc(-c4cnn(C)c4)cc3n2)c1 [Example 0495, N-(5-methoxypyridazin-3-yl)-7-(1-methyl-1H-pyrazol-4-yl)-1,5-naphthyridine-2-amine] | < 1000 | < 1000 | – |
| Cc1ccc(-c2cnc3ccc(Nc4cc(C(C)C)cnn4)nc3c2)cn1 [Example 0597] | 1000 to 10000 | < 1000 | – |
| CC(C)c1cnnc(Nc2ccc3ncc(-c4cnn(CCN5CCC5)c4)cc3n2)c1 [Example 0611] | < 1000 | < 1000 | – |
| CC(C)c1cnnc(Nc2ccc3ncc(N4CCCCC4)cc3n2)c1 [Example 0845, N-(5-isopropylpyridazin-3-yl)-7-(piperidin-1-yl)-1,5-naphthyridine-2-amine] | 1000 to 10000 | < 1000 | – |
| CCN(CCO)c1cnnc(Nc2ccc3ncc(-c4cnn(C)c4)cc3n2)c1 [Example 0525] | < 1000 | < 1000 | – |
| CC(C)c1cnnc(Nc2ccc3ncc(NC4CCOC4)cc3n2)c1 (stereo not drawn) [Example 0890] | < 1000 | 1000 to 10000 | – |
| CC(C)c1cnnc(Nc2ccc3ncc(-n4cnc(CCNC(=O)OC(C)(C)C)c4)cc3n2)c1 [Example 0505, tert-Butyl (2-(1-(6-((5-isopropylpyridazin-3-yl)amino)-1,5-naphthyridin-3-yl)-1H-imidazol-4-yl)ethyl)carbamate] | 1000 to 10000 | < 1000 | – |
| CC(C)c1cnnc(Nc2ccc3ncc(/C=C/c4cccnc4)cc3n2)c1 [Example 0648, (E)-N-(5-isopropylpyridazin-3-yl)-7-(2-(pyridin-3-yl)vinyl)-1,5-naphthyridine-2-amine] | < 1000 | < 1000 | – |
| CC(=O)Nc1nn(C)cc1-c1cnc2ccc(Nc3cc(C(C)C)cnn3)nc2c1 [Example 0690, N-(4-(6-((5-isopropylpyridazin-3-yl)amino)-1,5-naphthyridin-3-yl)-1-methyl-1H-pyrazol-3-yl)acetamide] | < 1000 | < 1000 | – |

The next lines start with the values.

| IC50 [1] [nM] | IC50 ([2]; ERK2 enzyme assay (2)) [nM] | IC50 [2] [nM] | SMILES |
| --- | --- | --- | --- |
| < 1000 | < 1000 | – | CCN1CC(OCCn2cc(-c3cnc4ccc(Nc5cc(C(C)C)cnn5)nc4c3)cn2)C1 [Example 0746, 7-(1-(2-((l-Ethylazetidin-3-yl)oxy)ethyl)-1H-pyrazol-4-yl)-N-(5-isopropylpyridazin-3-yl)-1,5-naphthyridine-2-amine] |
| < 1000 | < 1000 | – | CC(C)c1cnnc(Nc2ccc3ncc(-c4cnn(CCN5CCCCC5)c4)cc3n2)c1 [Example 0609, N-(5-isopropylpyridazin-3-yl)-7-(1-(2-(piperidin-1-yl)ethyl)-1H-pyrazol-4-yl)-1,5-naphthyridine-2-amine] |
| < 1000 | < 1000 | – | CCc1cnnc(Nc2ccc3ncc(-c4cn(C)nc4-c4cccnc4)cc3n2)c1 [Example 0542, N-(5-ethylpyridazin-3-yl)-7-(1-methyl-3-(pyridin-3-yl)-1H-pyrazol-4-yl)-1,5-naphthyridine-2-amine] |
| < 1000 | < 1000 | – | Cn1cc(-c2cnc3ccc(Nc4cc(C(C)(C)O)cnn4)nc3c2)cn1 [Example 0543, 2-(6-((7-(1-Methyl-1H-pyrazol-4-yl)-1,5-naphthyridin-2-yl)amino)pyridazin-4-yl)propan-2-ol] |
| < 1000 | < 1000 | – | CC(C)c1cnnc(Nc2ccc3ncc(-c4cn(C)nc4NC4CNC4)cc3n2)c1 [Example 0826] |
| < 1000 | – | < 1000 | COC1CN(c2nn(C)cc2-c2cnc3ccc(Nc4cc(C(C)C)cnn4)nc3c2)C1 [Example 0930] |
| < 1000 | < 1000 | – | CC(C)c1cnnc(Nc2ccc3ncc(-c4cnn(CCOC5CN(Cc6ccccc6)C5)c4)cc3n2)c1 [Example 0743] |
